Experimental data: US5606038A, “Amphiphilic polyene macrolide antibiotic compounds” (Competitive Technologies, Inc., priority 1995, dated 1997)
pEC50: −log10 of the molar value. ≈ marks a conversion by molar mass, not a printed value. Where two headings read alike, the source gives them in different places.

Legend:
in vitro = details: human, red blood cells
[1] = critical micelle concentration in PBS by molar absorptivity at 409 nm; format: physicochemical; details: PBS (pH 7.4), 37° C.
From the text: In its monomeric state, Amphotericin B has a characteristic absorption band at 409 nm; upon aggregation, however, its apparent molar absorptivity decreases in magnitude [see Biochemistry 30:5707 (1991)]. Thus, by measuring its molar absorptivity as a function of the reciprocal of the macrolide concentration, one can estimate the critical micelle concentration. This can be shown mathematically by allowing T, m and P to represent the total, monomeric, and micellar concentrations (i.e. the concentration of the drug that is present in micellar form) of the macrolide, respectively, and if ε represents the apparent molar absorptivity and εm and εp are the molar absorptivity for the monomeric and micellar components, respectively, then it can be shown that ε=εp +(εm -εp)m/T. At concentrations in excess of the critical micelle concentration, m is a constant and ε is inversely proportional to T.
Using the method described previously, the critical micelle concentrations for Amphotericin B and the conjugates described in the preceding examples were determined and are reported in Table I describing the aggregation, antifungal and hemolytic properties of […] macrolide antibiotics (in μM amounts) according to the present invention.
^a critical micelle concentration was determined in PBS (pH 7.4) at […]

[2] = tested on: Histoplasma capsulatum, Cryptococcus neoformans, and several species of Candida, including C. glabrata and C. albicans; details: cited from earlier work
solubility in water = format: physicochemical
Cryptococcus neoformans = assay: minimum inhibitory concentration, Cryptococcus neoformans, broth microdilution; format: cell-based; details: 24 h
Method: (§1) Microorganism inocula was harvested from one to five day old cultures grown on Sabourand's dextrose agar. After two washes with sterile saline, the inocula were counted utilizing a hemacytometer and diluted or concentrated as required to 1×10^4 blastospores per ml. Sterile molten agar (at 50° C.) was inoculated, allowed to cool, and 10 mm diameter discs impregnated (from […] stock solutions) with each of the test compounds was placed on the surface of the agar. Zones of inhibition were measured after incubating the plates at 30° C. for 24-48 hours.
(§2) The compounds were then screened against three strains of three species of microorganisms: Candida albicans, Cryptococcus neoformans, and Aspergillus fumigatus using a conventional double dilution technique. All tests reported in Table II were done by broth microdilution in yeast nitrogen base-glucose using an inoculum of 1×10^4 blastospores per ml; the cultures were incubated at 37° C. for 24 hours, and the minimum concentration (in μg/ml) that prevents visible growth was recorded as the minimum inhibitory concentration.

Candida albicans [3] = assay: K+ release from fungal cells; format: cell-based; details: 3×10^7 fungal cells/ml, read-out: concentration for releasing 50% of the K+ from fungal cells
human red blood cells = assay: hemolysis, 50% release of hemoglobin from human red blood cells; details: hemoglobin release from human red blood cells
Candida albicans [4] = assay: minimum inhibitory concentration, Candida albicans, broth microdilution; format: cell-based; details: 24 h, 37° C.
Method: ^c minimum inhibitory concentration (see Example IV); three different
strains of Candida albicans were tested; all tests were done in broth
microdilution in yeast nitrogen baseglucose at 37° C. for 24 hours
the initial inoculum was 1 × 10^4 blastospores per ml
The minimum inhibitory concentration reported in Table I was obtained, and further confirmed as reported in Table II, by the methods described in the following Example IV.
as §1, §2

[5] = tested on: Candida albicans (isolate NIH A); assay: survival of mice infected with Candida albicans (Example V); format: in vivo, Candida albicans in ICR mice; details: i.p. once per day for ten days, Example II 30 mg/kg, Amphotericin B 1 mg/kg
From the text: Ten immunocompetent ICR mice weighing 30 g each in three groups were inoculated intravenously with 3.2×10^6 colony forming units of Candida albicans (isolate NIH A) per mouse.

[6] = in solution; literature; cited from earlier work
Aspergillus fumigatus = assay: minimum inhibitory concentration, Aspergillus fumigatus, broth microdilution; format: cell-based; details: 24 h, 37° C.
Method: as §1, §2

mammalian cells = details: compared with Amphotericin B; cited from earlier work
fungal organisms = details: compared with Amphotericin B; cited from earlier work
[7] = C. neoformans (1), 37° C., read-out: minimum inhibitory concentration
[8] = C. neoformans (2), 37° C., read-out: minimum inhibitory concentration
[9] = read-out: minimum inhibitory concentration, C. neofornams (3), 37° C.
[10] = C. albicans (1), read-out: minimum inhibitory concentration
[11] = C. albicans (2), read-out: minimum inhibitory concentration
[12] = C. albicans (3), read-out: minimum inhibitory concentration
[13] = three strains of Candida albicans, yeast nitrogen base-glucose, 1 × 10^4 blastospores per ml, read-out: MIC (minimum inhibitory concentration)

SMILES | HC50 at 1 h (in vitro) [µM] | cmc (critical micelle concentration) [1] [µM] | MIC (Cryptococcus neoformans; [7]) [µg/mL] | MIC (Cryptococcus neoformans; [8]) [µg/mL] | MIC (Cryptococcus neoformans; [9]) [µg/mL] | pEC50 (Candida albicans [3]) | MIC (Candida albicans [4]; [10]) [µg/mL] | MIC (Candida albicans [4]; [11]) [µg/mL] | MIC (Candida albicans [4]; [12]) [µg/mL] | MIC (Candida albicans [4]; [13]) [µM] | MIC (Aspergillus fumigatus; A. fumigatus (1)) [µg/mL] | MIC (Aspergillus fumigatus; A. fumigatus (2)) [µg/mL] | MIC (Aspergillus fumigatus; A. fumigatus (3)) [µg/mL] | further results
C[C@@H]1[C@H](O)[C@@H](C)/C=C/C=C/C=C/C=C/C=C/C=C/C=C/[C@H](O[C@@H]2O[C@H](C)[C@@H](O)[C@H](N)[C@@H]2O)C[C@@H]2O[C@](O)(C[C@@H](O)C[C@@H](O)[C@H](O)CC[C@@H](O)C[C@@H](O)CC(=O)O[C@H]1C)C[C@H](O)[C@H]2C(=O)O [Amphotericin B, reference compound] | 1.8 | 1.1 | 0.8 (≈ 0.866 µM) | 0.8 (≈ 0.866 µM) | 0.8 (≈ 0.866 µM) | 7.00 | 1.6 | 1.6 | 1.6 | 1.7 | 0.8 (≈ 0.866 µM) | 1.6 (≈ 1.73 µM) | 0.8 (≈ 0.866 µM) | sensitivity to Amphotericin B in vitro [2]: 0.03 to 1.0 µg/mL; solubility in water (solubility in water; similar to Example I product (<10 μg/ml)): low solubility; concentration needed for hemolysis relative to critical micelle concentration (human red blood cells): must be greater than their critical micelle concentration; percent survival ([5]; day 2 post-infection): 100%; percent survival ([5]; day 3 post-infection): 100%; percent survival ([5]; day 4 post-infection): 100%; percent survival ([5]; day 5 post-infection): 100%; percent survival ([5]; day 6 post-infection): 100%; percent survival ([5]; day 7 post-infection): 90%; percent survival ([5]; day 30 post-infection): 90%; critical micelle concentration [6]: very low critical micelle concentration
COCCNC(=O)[C@H]1[C@@H]2C[C@@H](O[C@@H]3O[C@H](C)[C@@H](O)[C@H](N)[C@@H]3O)/C=C/C=C/C=C/C=C/C=C/C=C/C=C/[C@H](C)[C@@H](O)[C@@H](C)[C@H](C)OC(=O)C[C@H](O)C[C@H](O)CC[C@@H](O)[C@H](O)C[C@H](O)C[C@](O)(C[C@@H]1O)O2 [Example I] | 7.9 | 4.4 | 1.6 (≈ 1.63 µM) | 3.2 (≈ 3.26 µM) | 0.8 (≈ 0.815 µM) | 6.10 | 1.6 | 1.6 | 1.6 | 1.6 | 3.2 (≈ 3.26 µM) | 3.2 (≈ 3.26 µM) | 1.6 (≈ 1.63 µM) | solubility (solubility in water): < 10 µg/mL
C[C@@H]1[C@H](O)[C@@H](C)/C=C/C=C/CC/C=C/C=C/C=C/C=C/C(O[C@H]2O[C@H](C)[C@@H](O)[C@H](N)[C@@H]2O)CC2O[C@](O)(CC(O)C(O)CCC(O)CC(O)CC(O)CC(=O)O[C@H]1C)CC(O)C2C(=O)O (stereo partly shown) [Nystatin] | – | – | – | – | – | – | – | – | – | – | – | – | – | toxicity toward mammalian cells (mammalian cells): may be far less toxic toward mammalian cells; potency against fungal organisms (fungal organisms): somewhat lower in potency against fungal organisms as compared with Amphotericin B
